Measurements as given in the supplement of paper PMC10307832.

What was measured:
Test in all cases: relative viability (nuclei count vs DMSO), 5 days (fraction); higher = more cells survive
[1] = compound: CC(C)(C)c1nc(-c2cccc(NS(=O)(=O)c3c(F)cccc3F)c2F)c(-c2ccnc(N)n2)s1 [Dabrafenib] + NC(=O)Nc1cc(-c2cccc(F)c2)sc1C(=O)N[C@H]1CCCNC1 [AZD7762] (partner 0.2 µM)
Outline: (§1)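 A single step with final 0.05% Triton X-100, 1% formaldehyde and 1 ug/ml Hoechst fixed the cells and stained nuclei 5 days after treatment. Lung cancer cell lines in 1536-well plates had been treated by pin tool the day after seeding with one drug alone or a fixed anchor-drug dose plus five library-drug doses (not always all listed) in √10 steps, and nuclei were counted on 4× images. Relative viability is the ratio of nuclei in treated wells to nuclei in vehicle wells, taken as the median of duplicate plates.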

[2] = compound: NC(=O)c1ccc(N(C(N)=O)c2c(F)cccc2F)nc1-c1ccc(F)cc1F [VX-702] + Nc1ncn([C@H]2C[C@H](O)[C@@H](CO)O2)c(=O)n1 [Decitabine] (partner 2 µM)
Outline: as §1

[3] = compound: NC(=O)c1ccc(N(C(N)=O)c2c(F)cccc2F)nc1-c1ccc(F)cc1F [VX-702] + C[C@@H](Oc1cc(-c2cnn(C3CCNCC3)c2)cnc1N)c1c(Cl)ccc(F)c1Cl [Crizotinib] (partner 1 µM)
Outline: as §1

[4] = compound: CC(C)(C)c1nc(-c2cccc(NS(=O)(=O)c3c(F)cccc3F)c2F)c(-c2ccnc(N)n2)s1 [Dabrafenib] + CC(=O)c1c(C)c2cnc(Nc3ccc(N4CCNCC4)cn3)nc2n(C2CCCC2)c1=O [Palbociclib] (partner 0.5 µM)
Outline: as §1

Row | Cell Line | relative viability ([1]; first compound 0.003 µM) | relative viability ([1]; first compound 0.009487 µM) | relative viability ([1]; first compound 0.03 µM) | relative viability ([1]; first compound 0.09487 µM) | relative viability ([1]; first compound 0.3 µM) | relative viability ([2]; first compound 0.02 µM) | relative viability ([2]; first compound 0.2 µM) | relative viability ([2]; first compound 0.6325 µM) | relative viability ([2]; first compound 2 µM) | relative viability ([3]; first compound 0.02 µM) | relative viability ([3]; first compound 0.2 µM) | relative viability ([3]; first compound 0.6325 µM) | relative viability ([3]; first compound 2 µM) | relative viability ([4]; first compound 0.003 µM) | relative viability ([4]; first compound 0.009487 µM) | relative viability ([4]; first compound 0.03 µM) | relative viability ([4]; first compound 0.09487 µM) | relative viability ([4]; first compound 0.3 µM)
1 | 201T | 0.28 | 0.711 | 0.59 | 0.461 | 0.475 | 0.86 | 0.838 | 0.871 | 0.886 | 1.01 | 1.02 | 1.08 | 1.04 | 0.368 | 0.366 | 0.368 | 0.318 | 0.376
2 | A549 |  |  |  |  |  | 0.303 | 0.249 | 0.332 | 0.177 | 0.754 | 0.812 | 0.739 | 1.08 |  |  |  |  | 
3 | A-427 | 0.355 | 0.808 | 0.636 | 0.646 | 0.744 | 0.623 | 0.503 | 0.54 | 0.542 | 0.824 | 0.81 | 0.808 | 1.01 | 0.485 | 0.537 | 0.509 | 0.459 | 0.533
4 | ABC-1 | 0.345 | 0.638 | 0.823 | 0.789 | 0.597 | 0.923 | 1.09 | 1.09 | 1.31 | 1.34 |  | 1.08 | 1.42 |  | 1.01 | 0.704 | 0.607 | 1.03
5 | BEN |  | 0.769 |  | 0.81 | 0.852 | 0.724 | 0.646 | 0.694 | 0.776 | 0.732 | 0.781 | 0.937 | 0.956 |  | 0.477 |  | 0.426 | 0.448
6 | CAL-12T | 0.59 | 0.626 | 0.661 | 0.594 | 0.703 |  |  |  |  | 0.636 | 0.564 | 0.756 | 0.651 | 0.461 | 0.486 | 0.599 | 0.388 | 0.722
7 | COR-L23 |  |  |  |  |  | 0.518 | 0.521 | 0.435 | 0.525 | 0.768 | 0.666 | 0.668 | 0.757 | 0.25 | 0.328 | 0.245 | 0.275 | 0.207
8 | COR-L 105 |  |  |  |  |  | 0.619 | 0.722 | 0.696 | 0.636 | 0.653 | 0.79 | 0.956 | 1.21 | 0.414 | 0.396 | 0.398 | 0.417 | 0.367
9 | Calu-6 |  |  |  |  |  |  |  |  |  | 0.847 | 0.86 | 0.764 | 0.996 |  |  |  |  | 
10 | ChaGo-K-1 | 0.303 | 0.839 | 0.855 | 0.698 | 0.879 | 0.532 | 0.493 | 0.516 | 0.525 | 1.09 | 1.1 | 1.21 | 1.23 | 0.874 | 0.925 | 0.838 | 0.89 | 0.996
11 | EBC-1 |  |  |  |  |  |  |  |  |  | 0.191 | 0.18 | 0.158 | 0.201 |  |  |  |  | 
12 | EKVX |  | 0.749 | 0.588 | 0.676 | 0.72 | 0.425 | 0.29 | 0.303 | 0.276 | 0.774 | 0.969 | 0.905 | 1.2 |  | 0.41 | 0.387 | 0.383 | 0.445
13 | EMC-BAC-2 |  | 1.13 | 0.967 | 0.728 | 0.782 | 0.969 | 0.962 | 0.944 | 0.885 | 0.779 | 0.678 | 0.791 | 0.698 |  | 0.497 | 0.448 | 0.427 | 0.418
14 | EPLC-272H |  | 0.283 | 0.174 | 0.207 | 0.155 | 0.353 | 0.373 | 0.374 | 0.403 | 0.968 | 0.773 | 0.983 | 1.16 |  | 0.318 | 0.286 | 0.366 | 0.354
15 | H3255 | 0.791 | 0.94 | 0.908 | 0.758 | 1.16 | 0.541 |  | 0.671 | 0.625 | 0.774 | 1.09 | 0.855 | 0.86 | 0.288 | 0.313 | 0.343 | 0.313 | 0.333
16 | HARA |  | 0.392 | 0.46 | 0.368 | 0.312 | 0.567 |  | 0.512 | 0.523 | 1.1 | 0.982 | 1.07 | 1.13 |  | 0.325 |  | 0.304 | 0.338
17 | HCC-15 | 1.17 | 1.11 | 1.09 | 1.16 | 1.09 | 0.656 | 0.586 | 0.627 | 0.647 | 0.873 | 0.834 | 0.759 | 0.848 | 0.714 | 0.779 | 0.769 | 0.729 | 0.78
18 | HCC-44 | 0.966 | 1.02 | 1.12 | 1.06 | 1 | 1 | 0.969 | 1.02 | 0.924 | 0.802 | 0.739 | 0.817 | 0.971 | 1.01 | 0.956 | 0.943 | 0.842 | 0.983
